In patent US20250082648A1, “COMPOSITIONS AND METHODS FOR ENHANCING KRAS INHIBITOR OR SHP2 INHIBITOR EFFICACY” (New York University, priority 2023, published 2025):

System: H23 cells
Test: CRISPR/Cas9 synthetic lethal screen with TNO155 alone
Format: cell-based, human

## C[C@@H]1OCC2(CCN(c3cnc(Sc4ccnc(N)c4Cl)c(N)n3)CC2)[C@@H]1N [TNO155]
Knockout gene AP2M1
  neg|lfc: −1.5896
Knockout gene ATP6V0C
  neg|lfc: −2.4937
Knockout gene ATP6V1F
  neg|lfc: −1.3822
Knockout gene ATP6V1H
  neg|lfc: −1.2922
Knockout gene BUB1
  neg|lfc: −1.3761
Knockout gene C7orf26
  neg|lfc: −1.2403
Knockout gene C12orf45
  neg|lfc: −0.8919
Knockout gene C18orf21
  neg|lfc: −1.7774
Knockout gene CAPZA1
  neg|lfc: −0.8323
Knockout gene CARD10
  neg|lfc: −0.8745
Knockout gene CD3EAP
  neg|lfc: −0.9138
Knockout gene CENPM
  neg|lfc: −2.7542
Knockout gene CFDP1
  neg|lfc: −1.4115
Knockout gene COQ6
  neg|lfc: −0.9015
Knockout gene COX6B1
  neg|lfc: −1.1999
Knockout gene CS
  neg|lfc: −0.9482
Knockout gene DCST2
  neg|lfc: −1.3843
Knockout gene DDX52
  neg|lfc: −1.2486
Knockout gene DENR
  neg|lfc: −1.046
Knockout gene DHPS
  neg|lfc: −1.8131
Knockout gene DPM3
  neg|lfc: −0.9381
Knockout gene EGLN1
  neg|lfc: −1.2972
Knockout gene ELP2
  neg|lfc: −0.9643
Knockout gene EXOSC2
  neg|lfc: −2.2014
Knockout gene FASTKD5
  neg|lfc: −1.4304
Knockout gene FBL
  neg|lfc: −2.1994
Knockout gene FXN
  neg|lfc: −2.3715
Knockout gene G6PD
  neg|lfc: −2.0605
Knockout gene GATA5
  neg|lfc: −0.7392
Knockout gene GMPS
  neg|lfc: −1.5348
Knockout gene GNB2L1
  neg|lfc: −1.4387
Knockout gene GTF2H3
  neg|lfc: −0.8448
Knockout gene GTF3C1
  neg|lfc: −1.8687
Knockout gene HARS2
  neg|lfc: −1.9989
Knockout gene HIRA
  neg|lfc: −1.0969
Knockout gene HSPA13
  neg|lfc: −1.2857
Knockout gene IPO9
  neg|lfc: −1.5514
Knockout gene KIAA1324
  neg|lfc: −0.9092
Knockout gene KREMEN2
  neg|lfc: −1.0026
Knockout gene LARS
  neg|lfc: −2.0903
Knockout gene LEMD2
  neg|lfc: −1.7855
Knockout gene LIAS
  neg|lfc: −1.7787
Knockout gene LRPPRC
  neg|lfc: −1.3022
Knockout gene MCAT
  neg|lfc: −1.6999
Knockout gene MMGT1
  neg|lfc: −1.1768
Knockout gene MPHOSPH10
  neg|lfc: −1.2081
Knockout gene MRPL2
  neg|lfc: −1.5188
Knockout gene MRPS11
  neg|lfc: −2.1012
Knockout gene MRPS14
  neg|lfc: −2.7074
Knockout gene MTERFD1
  neg|lfc: −0.8478
Knockout gene MTFMT
  neg|lfc: −1.4999
Knockout gene MVD
  neg|lfc: −2.2878
Knockout gene NDUFAF4
  neg|lfc: −2.8677
Knockout gene NDUFS2
  neg|lfc: −1.6602
Knockout gene NGDN
  neg|lfc: −1.6157
Knockout gene NHP2
  neg|lfc: −2.4304
Knockout gene NUP50
  neg|lfc: −1.7194
Knockout gene OXA1L
  neg|lfc: −1.0359
Knockout gene PAXIP1
  neg|lfc: −1.2046
Knockout gene PELO
  neg|lfc: −1.8232
Knockout gene PFDN2
  neg|lfc: −1.6271
Knockout gene PHB
  neg|lfc: −0.6638
Knockout gene PHF6
  neg|lfc: −0.9513
Knockout gene PIGM
  neg|lfc: −0.9761
Knockout gene PIK3C3
  neg|lfc: −1.3101
Knockout gene PKN2
  neg|lfc: −1.323
Knockout gene PLEC
  neg|lfc: −0.9261
Knockout gene POLR3C
  neg|lfc: −2.1096
Knockout gene PRMT1
  neg|lfc: −2.4486
Knockout gene PTCD3
  neg|lfc: −1.5106
Knockout gene RABGGTA
  neg|lfc: −1.5175
Knockout gene RBFA
  neg|lfc: −1.2488
Knockout gene RBM15
  neg|lfc: −0.9128
Knockout gene RMND1
  neg|lfc: −2.1857
Knockout gene RNGTT
  neg|lfc: −1.4545
Knockout gene RNMTL1
  neg|lfc: −1.8816
Knockout gene RPF2
  neg|lfc: −1.6299
Knockout gene RPS2
  neg|lfc: −1.4859
Knockout gene RRP36
  neg|lfc: −1.7306
Knockout gene RSBN1
  neg|lfc: −1.1801
Knockout gene SDHB
  neg|lfc: −1.352
Knockout gene SDHC
  neg|lfc: −1.0873
Knockout gene SLC30A9
  neg|lfc: −0.8169
Knockout gene SMNDC1
  neg|lfc: −1.605
Knockout gene SNRPA
  neg|lfc: −0.853
Knockout gene SORT1
  neg|lfc: −0.7919
Knockout gene SS18L2
  neg|lfc: −1.8054
Knockout gene SYS1
  neg|lfc: −1.4135
Knockout gene TAF2
  neg|lfc: −1.6548
Knockout gene TAMM41
  neg|lfc: −1.389
Knockout gene TEX10
  neg|lfc: −1.2531
Knockout gene TFRC
  neg|lfc: −0.7641
Knockout gene TRAPPC3
  neg|lfc: −1.2908
Knockout gene TRAPPC11
  neg|lfc: −1.3146
Knockout gene TRMT6
  neg|lfc: −1.3112
Knockout gene TSC2
  neg|lfc: −1.2936
Knockout gene VMP1
  neg|lfc: −2.2825
Knockout gene XRCC3
  neg|lfc: −1.7596
Knockout gene YARS
  neg|lfc: −2.5691
Knockout gene YKT6
  neg|lfc: −1.2993
